According to patent US10479752B2, “Deuterated tetramethyl dioic acids, compositions comprising them and uses thereof” (SYNDROMEX LTD., priority 2011, dated 2019):

Tests used:
[1] = Chemical and isotopic stability as solutions in DMSO/phosphate buffered saline over 48 hours; conditions: for chemical purity (HPLC area percent) with respect to related substances: all samples through the study; for analyte recovered, yield: summary over the study; for disenrichment of the product (isotopic stability): throughout the time period of the study
Experimental: A 1 mg/mL stock solution (˜55 mL) of deuterated compound in DMSO was prepared. A measured volume of stock (7.5 mL) was dispensed in to each of seven vials. To each vial was added a measured volume of PBS (aq) (3.0 mL), and each vial was agitated to mix. The vials were then placed in a thermostatically-controlled oven set to 37° C. At each time-point (0 h, 2 h, 4 h, 24 h, 48 h) a vial was drawn from the oven. To the vial was added MTBE (9.0 mL), and the mixture was stirred vigorously for 5 min. The layers were separated, and the MTBE layer was agitated with DI water (3.75 mL) for 1 min. The layers were separated. The MTBE layer was dried with MgSO4 for >1 h, and then filtered through a PTFE syringe filter into a tared vial. The solution was concentrated in vacuo to a solid residue, and the mass of the residue was calculated and recorded. To the residue a measured volume of MeOH was added to make (theoretically) a 2.5 mg/mL solution. In this case, 3.00 mL MeOH was added to each vial which theoretically contained 7.5 mg of compound. The content of each solution was measured by quantitative HPLC analysis (by comparison to a standard of known concentration). The MeOH solutions were then recovered, concentrated in vacuo to a solid, and then analyzed by GCMS to determine isotopic enrichment as the methyl ester derivatives.

[2] = Comparative oral bioavailability / pharmacokinetic study, single intravenous and oral administration; type: in vivo; conditions: rat; for C0 / t1/2 / AUCinf / Cmax / tmax: Mean CV (%); for F (oral bioavailability): 50 mg/kg po vs 5 mg/kg iv, Mean (CV %); for tmax of the individual treated rats: oral administration 50 mg/kg, post-dose
Experimental: The pharmacokinetic properties and the oral bioavailability were investigated for the following comparative compounds:
The plasma concentrations of the test items were measured by LC/MS/MS method following single intravenous and oral administration at the doses of 5 mg/kg body weight and 50 mg/kg body weight, respectively. Following intravenous administration small inter-individual variability was observed. Following i.v administration, the highest plasma concentrations were measured at the first sampling time-point (5 minutes) followed by a biphasic continuous decrease. […] The peak concentrations, tmax and the apparent terminal elimination half-lives (t1/2) were the followings:
The vehicle for oral administration was prepared in advance. Preparation: 1 g of carboxymethylcellulose sodium salt was dissolved in 100 ml of Humaqua. The vehicle was prepared at least 2 days prior to formulation of the test items. The vehicle was stored in a refrigerator when not in use.
The required amount of test item was weighed on an analytical balance, transferred into a suitable vial. The test item was dissolved in the required volume of N,N-dimethylacetamide (40% of the final volume). Dissolution of the test item was facilitated by gentle mixing by vortex. The solution was diluted with the suitable volume of PEG400 (40% of the final volume) then Salsol A (20% of the final volume). The final concentration of the test item in the solution was 5 mg/ml. The formulations were prepared freshly on the day of administration.
The required amount of test item was weighed on an analytical balance, transferred into a test tube and mixed with the suitable volume of 1% CMC to achieve the final concentration of 25 mg/ml. The suspension was sonicated twice in bath sonicator for 30 min at 40 C (each round), and left overnight at room temperature. On the following day, the suspension was sonicated again (bath sonicator, 30 min, 40° C.) and further homogenized in a glass/glass homogenizer trying to reaching an homogenous suspension. In spite of the above procedure the quality (homogeneity) of the suspension was not perfect. The suspension was stored at room temperature till administration.
Species/Strain rat/Wistar (Crl:(WI)BR rats)
Number of animals: 24 males (at least 32 for cannulation*)
After the acclimatization period, rats were equipped with a jugular vein cannula under isoflurane anesthesia. The following day the animals were used for the study. In the morning the rats were checked for health status and blood sampling before assigning them into the experimental group.
The terminal elimination phase was defined on the basis of the last 3-5 measured concentration except rat A4. […] The central volume of distribution (Vc: […]) was approximately equal to the total blood volume. The volume of distribution estimated for the steady state situation (Vss: 97.3-143 ml/kg) remained also small compared to the total extracellular fluid volume (˜300 ml/kg). The clearance was also very small for all experimental compound analogues. The smallest clearance was obtained for Compound 7: 23.2 ml/h/kg.

Male db/db Mouse Model = test: Comparative in vivo efficacy study, 3 h-fasting blood glucose; conditions: db/db mice
Experimental: Male db/db Mouse Model. Age of animal at start of treatment: 10-11 weeks. Animals per treatment group: 6-7 mice per each group.
Vehicle control: (1% CMC in water).
Positive control: Rosiglitazone, 25 mg/kg.
Group I: Compound 7″, 12.5 mg/kg.
Group II: Compound 7″, 25 mg/kg. […]
Group IV: Compound 7, 25 mg/kg.
Duration of treatment: 15 days.
1. Dosing: Animals are 10-11 weeks of age and were allowed to acclimate 1-2 weeks. After acclimation, animals were entered to the study and were […] daily for a duration of 15 days.
2. Formulation: compounds were formulated with […]. Formulation also involve sonication and vortexing before use.
4. Fasting Glucose Levels: 3 h-Fasting glucose levels were measured on tail blood of all the animals on days 0, 6, 12, and 16 (not shown) of the study using glucose sticks (Proforma).

[3] = DMSO/PBS solution, 37° C., 24 h
[4] = DMSO/PBS solution, 37° C., 48 h
[5] = Original Sample (before the stability study)

Structure (SMILES) | GC/MS IE (isotopic enrichment) ([1]; DMSO/PBS solution, 37° C., 0 h) [%] | HPLC Area Percentage ([1]; DMSO/PBS solution, 37° C., 0 h) [%] | HPLC Assay ([1]; DMSO/PBS solution, 37° C., 0 h) [%] | GC/MS IE (isotopic enrichment) ([1]; DMSO/PBS solution, 37° C., 2 h) [%] | HPLC Area Percentage ([1]; DMSO/PBS solution, 37° C., 2 h) [%] | HPLC Assay ([1]; DMSO/PBS solution, 37° C., 2 h) [%] | GC/MS IE (isotopic enrichment) ([1]; DMSO/PBS solution, 37° C., 4 h) [%] | HPLC Area Percentage ([1]; DMSO/PBS solution, 37° C., 4 h) [%] | HPLC Assay ([1]; DMSO/PBS solution, 37° C., 4 h) [%] | GC/MS IE (isotopic enrichment) [1, 3] [%] | HPLC Area Percentage [1, 3] [%] | HPLC Assay [1, 3] [%] | GC/MS IE (isotopic enrichment) [1, 4] [%] | HPLC Area Percentage [1, 4] [%] | HPLC Assay [1, 4] [%] | chemical purity (HPLC area percent) with respect to related substances ([1]; DMSO/PBS solution, 37° C.) | analyte recovered, yield ([1]; DMSO/PBS solution, 37° C.) | disenrichment of the product (isotopic stability) ([1]; DMSO/PBS solution, 37° C.) | GC/MS IE (isotopic enrichment) [1, 5] [%] | HPLC Area Percentage [1, 5] [%] | other results
[2H]C([2H])([2H])C(CCCCCCCCCCC(C([2H])([2H])[2H])(C([2H])([2H])[2H])C([2H])([2H])C(=O)O)(C([2H])([2H])[2H])C([2H])([2H])C(=O)O [Compound 1, 3,3,14,14-[D16]Tetramethyl-1,16-hexadecanedoic acid] | 98.3 | 98.1 | 66.5 | 98.2 | 97.2 | 64.5 | 98.2 | 97.8 | 70.1 | 98.3 | 97.6 | 89.3 | 98.3 | 97.5 | 86.3 | around 97% | over 90% | No disenrichment | 98.3 | 100.0 | C0 ([2]; 5 mg/kg iv dose): 67.0 (8.8%) μg/ml; t1/2 ([2]; 5 mg/kg iv dose): 2.81 (28.5%) h; AUCinf ([2]; 5 mg/kg iv): 137 (19.3%) h * μg/ml; Cmax ([2]; 50 mg/kg po dose): 114 (19.6%) μg/ml; t1/2 ([2]; 50 mg/kg po dose): 4.29 (15.7%) h; tmax ([2]; 50 mg/kg po dose): 4 (0%) h; F (oral bioavailability) [2]: 91.0 (11.1) %; AUCinf ([2]; 50 mg/kg po): 1246 (11.1%) h * μg/ml; tmax of the individual treated rats [2]: 4 h
[2H]C([2H])([2H])C(CCCCCCCCCCCCC(C(=O)O)(C([2H])([2H])[2H])C([2H])([2H])[2H])(C(=O)O)C([2H])([2H])[2H] [Compound 7, 2,2,15,15-Tetramethyl(D12)-hexadecanedioic acid] | 99.9 | 96.8 | 89.4 | 99.9 | 95.4 | 101.6 | 99.9 | 95.8 | 91.6 | 99.9 | 96.9 | 92.3 | 99.9 | 96.7 | 82.2 | around 96% | approximately 90% | No disenrichment | 99.9 | 99.5 | efficacy on 3 h-fasting blood glucose, in words (Male db/db Mouse Model; Group III (Compound 7, 25 mg dose) compared with Groups I and II (Compound 7″)): exceeds that of both treatment Groups I and II; glucose level reached (normalized plasma levels) (Male db/db Mouse Model; Group IV (Compound 7, 25 mg)): less than 110 mg %; efficacy on 3 h-fasting blood glucose, in words (Male db/db Mouse Model; Group IV (Compound 7, 25 mg), days 0, 6, 12, compared with Rosiglitazone 25 mg/kg): greater efficacy as compared with Rosiglitazone; C0 ([2]; 5 mg/kg iv dose): 64.3 (16.9%) μg/ml; t1/2 ([2]; 5 mg/kg iv dose): 2.14 (2.6%) h; AUCinf ([2]; 5 mg/kg iv): 218 (14.9%) h * μg/ml; Cmax ([2]; 50 mg/kg po dose): 151 (29.0%) μg/ml; t1/2 ([2]; 50 mg/kg po dose): 6.64 (50.3%) h; tmax ([2]; 50 mg/kg po dose): 4 (0%) h; F (oral bioavailability) [2]: 102 (36.8) %; AUCinf ([2]; 50 mg/kg po): 2221 (36.8%) h * μg/ml; mean residence time ([2]; intravenous administration): 4.2 h; clearance ([2]; iv administration): 0.387 mL/min/kg; mean residence time ([2]; oral administration): 11.8 h; tmax of the individual treated rats [2]: 4 h
